Data published in US8119805B2, “Substituted disulfonamide compounds” (Gruenenthal GmbH, priority 2008, dated 2012).

Experiments:
[1] = target: T1, B1R receptor of the rat (rB1R) (Rattus norvegicus, UniProt P97583); assay: Functional investigation on the bradykinin 1 receptor (B1R), FLIPR Ca2+ assay, rB1R cells; type: cell-based; details: test substance 10 μM; CHO K1 cells transfected with rat B1R gene; Fluo-4 Ca2+ signal; agonist Des-Arg9-bradykinin at EC80; % of maximum achievable inhibition; read-out: B1R antagonism, rat [10 μM] % inhibition
T1 construct: expressed in transfected cells; host or cells: CHO K1 cells
T1 sequence (P97583 1-337): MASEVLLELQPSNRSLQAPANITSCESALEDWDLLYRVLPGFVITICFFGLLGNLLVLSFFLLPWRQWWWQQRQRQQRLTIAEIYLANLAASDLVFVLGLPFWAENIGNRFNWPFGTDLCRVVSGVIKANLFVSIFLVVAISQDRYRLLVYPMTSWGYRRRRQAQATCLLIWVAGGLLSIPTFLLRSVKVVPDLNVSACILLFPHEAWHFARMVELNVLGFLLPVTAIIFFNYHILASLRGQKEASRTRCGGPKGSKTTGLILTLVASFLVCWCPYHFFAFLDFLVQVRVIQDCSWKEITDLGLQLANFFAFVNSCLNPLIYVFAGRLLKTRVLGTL
Experimental: (§1) The agonistic or antagonistic action of substances on the bradykinin 1 receptor (B1R) of the human and rat species can be quantified with ectopically expressing cell lines (CHO K1 cells) and with the aid of a Ca^2+-sensitive dyestuff (Fluo-4) in a fluorescent imaging plate reader (FLIPR). The value in % activation is based on the Ca^2+ signal after addition of Lys-Des-[…]-bradykinin (0.5 nM) or Des-[…]-bradykinin (100 nM). Antagonists lead to a suppression of the Ca^2+inflow after addition of the agonist. % inhibition compared with the maximum achievable inhibition is stated. The agonistic or antagonistic action of substances on the bradykinin 1 receptor (B1R) of the human and rat species can be determined with the following assay. In accordance with this assay, the Ca^2+ inflow through the channel is quantified with the aid of a Ca^2+-sensitive dyestuff (type Fluo-4, Molecular Probes Europe BV, Leiden, Holland) in a fluorescent imaging plate reader (FLIPR, Molecular Devices, Sunnyvale, USA). Chinese hamster ovary cells (CHO K1 cells) transfected stably with the human B1R gene (hB1R cells) or the B1R gene of the rat (rB1R cells) are used. For functional studies, these cells are plated out on black 96-well plates with a clear base (BD Biosciences, Heidelberg, Germany or Greiner, Frickenhausen, Germany) in a density of 20,000-35,000 cells/well. The cells are left overnight at 37° C. and 5% CO2 in culture medium (hB1R cells: Nutrient Mixture Ham's F12, Gibco Invitrogen GmbH, Karlsruhe, Germany or DMEM, Sigma-Aldrich, Taufkirchen, Germany; rB1R cells: D-MEM/F12, Gibco Invitrogen GmbH, Karlsruhe, Germany) with 10 vol. % FBS (foetal bovine serum, Gibco Invitrogen GmbH, Karlsruhe, Germany or PAN Biotech GmbH, Aidenbach, Germany). On the following day, the cells are loaded for 60 min at 37° C. with 2.13 μM Fluo-4 (Molecular Probes Europe BV, Leiden Holland) in HBSS buffer (Hank's buffered saline solution, Gibco Invitrogen GmbH, Karlsruhe, Germany) with 2.5 mM probenecid (Sigma-Aldrich, Taufkirchen, Germany) and 10 mM HEPES (Sigma-Aldrich, Taufkirchen, Germany). The plates are then washed 2× with HBSS buffer, and HBSS buffer which additionally contains 0.1% BSA (bovine serum albumin; Sigma-Aldrich, Taufkirchen, Germany), 5.6 mM glucose and 0.05% gelatine (Merck KGaA, Darmstadt, Germany) is added. After a further incubation of 20 minutes at room temperature, the plates are inserted into the FLIPR for the Ca^2+ measurement. Alternatively, the plates are washed with buffer A (15 mM HEPES, 80 mM NaCl, 5 mM KCl, 1.2 mM CaCl2, 0.7 mM MgSO4, 2 g/l glucose, 2.5 mM probenecid), buffer A is added and the plates are loaded with 2.5 μM Fluo-4 and 0.025% Pluronic F127 (Sigma-Aldrich, Taufkirchen, Germany). Thereafter, the cells are washed 2× with buffer A and incubated for 30 minutes at room temperature with buffer A, which additionally contains 0.05% BSA and 0.05% gelatine, and thereafter inserted into the FLIPR for the Ca^2+ measurement. The Ca^2+-dependent fluorescence is measured here before and after addition of substances (λex=488 nm, λem=540 nm). Quantification is by measurement of the highest fluorescence intensity (FC, fluorescence counts) over time. The FLIPR protocol consists of 2 additions of substance. Test substances (10 μM) are first pipetted on to the cells and the Ca^2+ inflow is compared with the control (hB1R: Lys-Des-[…]-bradykinin>=50 nM; rB1R: Des-[…]-bradykinin 10 μM). This gives the result in % activation based on the Ca^2+ signal after addition of Lys-Des-[…]-bradykinin (>=50 nM) or Des-[…]-bradykinin (10 μM). After incubation for 10-20 minutes, Lys-Des-[…]-bradykinin (hB1R) or Des-[…]-bradykinin (rB1R) at the EC80 concentration is applied and the inflow of Ca^2+ is likewise determined. Antagonists lead to a suppression of the Ca^2+ inflow. The percent inhibition compared to the maximum achievable inhibition is calculated. In order to determine the IC50 value, the substances are added in various concentrations. […]

[2] = target: T2, human B1R receptor (hB1R) (Homo sapiens, UniProt P46663); assay: Functional investigation on the bradykinin 1 receptor (B1R), FLIPR Ca2+ assay, hB1R cells; type: cell-based; details: test substance 10 μM; CHO K1 cells transfected with human B1R gene; Fluo-4 Ca2+ signal; agonist Lys-Des-Arg9-bradykinin at EC80; % of maximum achievable inhibition; read-out: B1R antagonism, human [10 μM] % inhibition
T2 construct: expressed in transfected cells; host or cells: CHO K1 cells
T2 sequence (P46663 1-353): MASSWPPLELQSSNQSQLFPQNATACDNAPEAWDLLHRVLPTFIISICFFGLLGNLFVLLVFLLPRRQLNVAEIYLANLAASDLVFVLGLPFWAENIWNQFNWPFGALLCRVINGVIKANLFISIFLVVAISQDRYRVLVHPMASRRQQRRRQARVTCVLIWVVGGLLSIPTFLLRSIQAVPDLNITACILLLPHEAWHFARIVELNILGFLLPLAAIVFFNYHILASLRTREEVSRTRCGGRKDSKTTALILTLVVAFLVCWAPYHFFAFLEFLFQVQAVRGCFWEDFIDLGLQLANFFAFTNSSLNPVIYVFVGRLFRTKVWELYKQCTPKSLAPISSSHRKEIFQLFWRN
Experimental: as §1

SMILES	inhibition at 10 µM [1]	inhibition at 10 µM [2]
Cc1cccc(Cl)c1S(=O)(=O)N1CCC[C@H]1CCCS(=O)(=O)N1CCC2(CCN(c3ccncc3)CC2)CC1 [Example 65, 3-(3-((S)-1-(2-Chloro-6-methylphenylsulfonyl)pyrrolidin-2-yl)propylsulfonyl)-9-(pyridin-4-yl)-3,9-diazaspiro[5.5]undecane]	97%	99%
COc1cc(C)c(S(=O)(=O)N2CCC[C@H]2CCCS(=O)(=O)N2CCC3(CCC(N4CC(F)(F)C4)CC3)CC2)c(C)c1 [Example 63, 9-(3,3-Difluoroazetidin-1-yl)-3-(3-((S)-1-(4-methoxy-2,6-dimethylphenylsulfonyl)pyrrolidin-2-yl)propylsulfonyl)-3-azaspiro[5.5]undecane]	102%	99%
O=S(=O)(CCC[C@@H]1CCCN1S(=O)(=O)c1ccc(Cl)c2ccccc12)N1CCC2(CCN(c3ccncc3)CC2)CC1 [Example 79, 3-(3-((S)-1-(4-Chloronaphthalen-1-ylsulfonyl)pyrrolidin-2-yl)propylsulfonyl)-9-(pyridin-4-yl)-3,9-diazaspiro[5.5]undecane]	96%	77%
Cc1cc(S(=O)(=O)N2CCC[C@H]2CCCS(=O)(=O)N2[C@@H]3CC[C@H]2C[C@H](Oc2ccncc2)C3)c(C)cc1Cl [Example 61, (1R,3R,5S)-8-(3-((S)-1-(4-Chloro-2,5-dimethylphenylsulfonyl)pyrrolidin-2-yl)propylsulfonyl)-3-(pyridin-4-yloxy)-8-azabicyclo[3.2.1]octane]	97%	75%
CN1CCC(N2CCN(S(=O)(=O)CCC[C@@H]3CCCN3S(=O)(=O)c3ccc(Cl)cc3Cl)CC2)CC1 [Example 31, (S)-1-(3-(1-(2,4-Dichlorophenylsulfonyl)pyrrolidin-2-yl)propylsulfonyl)-4-(1-methylpiperidin-4-yl)piperazine]	64%	89%
COc1cc(C)c(S(=O)(=O)N2CCC[C@H]2CCCS(=O)(=O)N2CCC3(CCN(c4ccncc4)CC3)C2)c(C)c1 [Example 85, (S)-2-(3-(1-(4-Methoxy-2,6-dimethylphenylsulfonyl)pyrrolidin-2-yl)propylsulfonyl)-8-(pyridin-4-yl)-2,8-diazaspiro[4.5]decane]	101%	99%
COc1cc(C)c(S(=O)(=O)N2CCC(CCS(=O)(=O)N3CCN(c4ccncc4)CC3)C2)c(C)c1C (stereo not drawn) [Example 22, 1-(2-(1-(4-Methoxy-2,3,6-trimethylphenylsulfonyl)pyrrolidin-3-yl)ethylsulfonyl)-4-(pyridin-4-yl)piperazine]	95%	103%
CN1CCC(N2CCN(S(=O)(=O)CC3CCCCN3S(=O)(=O)c3cccc(C(F)(F)F)c3)CC2)CC1 (stereo not drawn) [Example 37, 1-(1-Methylpiperidin-4-yl)-4-((1-(3-(trifluoromethyl)phenylsulfonyl)piperidin-2-yl)methylsulfonyl)piperazine]	40%	53%
COc1cc(C)c(S(=O)(=O)N2CCC[C@H]2CCCS(=O)(=O)N2CCC3(CCN(c4ccncc4)C3)C2)c(C)c1 (stereo partly drawn) [Example 82, 2-(3-((S)-1-(4-Methoxy-2,6-dimethylphenylsulfonyl)pyrrolidin-2-yl)propylsulfonyl)-7-(pyridin-4-yl)-2,7-diazaspiro[4.4]nonane]	103%	100%
O=S(=O)(CCC[C@@H]1CCCN1S(=O)(=O)c1cccc(Cl)c1Cl)N1[C@@H]2CC[C@H]1C[C@H](Oc1ccncc1)C2 [Example 60, (1R,3R,5S)-8-(3-((S)-1-(2,3-Dichlorophenylsulfonyl)pyrrolidin-2-yl)propylsulfonyl)-3-(pyridin-4-yloxy)-8-azabicyclo[3.2.1]octane]	100%	89%
O=S(=O)(CCC[C@@H]1CCCN1S(=O)(=O)c1ccc(Cl)cc1Cl)N1[C@@H]2CC[C@H]1C[C@H](Oc1ccncc1)C2 [Example 59, (1R,3R,5S)-8-(3-((S)-1-(2,4-Dichlorophenylsulfonyl)pyrrolidin-2-yl)propylsulfonyl)-3-(pyridin-4-yloxy)-8-azabicyclo[3.2.1]octane]	96%	94%
CN1CCC(N2CCN(S(=O)(=O)CCCCC3CCCN3S(=O)(=O)c3c(Cl)cc(C(F)(F)F)cc3Cl)CC2)CC1 (stereo not drawn) [Example 9, 1-(4-(1-(2,6-Dichloro-4-(trifluoromethyl)phenylsulfonyl)pyrrolidin-2-yl)butylsulfonyl)-4-(1-methylpiperidin-4-yl)piperazine]	30%	58%
CC1(C)CCc2cc(S(=O)(=O)N3CCC[C@H]3CCCS(=O)(=O)N3CCC(Oc4ccncc4)CC3)ccc2O1 [Example 69, (S)-4-(1-(3-(1-(2,2-Dimethylchroman-6-ylsulfonyl)pyrrolidin-2-yl)propylsulfonyl)piperidin-4-yloxy)pyridine]	12%	33%
Cc1cccc(Cl)c1S(=O)(=O)N1CCC[C@H]1CCCS(=O)(=O)N1CCN(C2CCN(C)CC2)CC1 [Example 27, (S)-1-(3-(1-(2-Chloro-6-methylphenylsulfonyl)pyrrolidin-2-yl)propylsulfonyl)-4-(1-methylpiperidin-4-yl)piperazine]	93%	108%
Cc1cc(S(=O)(=O)N2CCC(CCS(=O)(=O)N3CCC(CCN4CCCC4)CC3)C2)c(C)cc1Cl (stereo not drawn) [Example 19, 1-(2-(1-(4-Chloro-2,5-dimethylphenylsulfonyl)pyrrolidin-3-yl)ethylsulfonyl)-4-(2-(pyrrolidin-1-yl)ethyl)piperidine]	13%	77%
